The assay deals with T1, human recombinant Yes [a.a. 2–543 (end)] (Homo sapiens, UniProt P07947).
T1 construct: human recombinant Yes [a.a; 2–543 (end)]; purchased BPS Bioscience 40488
In words: ADP-Glo kinase assay, inhibition rates of Yes phosphorylation activity (first and second screening). To be noted: 10 μmol L−1 compound; for First screening IR (inhibition rate): mean of n = 4 wells. It counts as biochemical. Summed up: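 ADP-Glo luminescence measured inhibition of human recombinant Yes (a.a. 2–543) phosphorylation activity. In the first screen, each compound ran in 4 wells and inhibition rates were averaged. The second screen retested hits as compounds dissolved from fresh powder.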

SMILES strings stand for the structures.

T1 sequence (P07947 2-543): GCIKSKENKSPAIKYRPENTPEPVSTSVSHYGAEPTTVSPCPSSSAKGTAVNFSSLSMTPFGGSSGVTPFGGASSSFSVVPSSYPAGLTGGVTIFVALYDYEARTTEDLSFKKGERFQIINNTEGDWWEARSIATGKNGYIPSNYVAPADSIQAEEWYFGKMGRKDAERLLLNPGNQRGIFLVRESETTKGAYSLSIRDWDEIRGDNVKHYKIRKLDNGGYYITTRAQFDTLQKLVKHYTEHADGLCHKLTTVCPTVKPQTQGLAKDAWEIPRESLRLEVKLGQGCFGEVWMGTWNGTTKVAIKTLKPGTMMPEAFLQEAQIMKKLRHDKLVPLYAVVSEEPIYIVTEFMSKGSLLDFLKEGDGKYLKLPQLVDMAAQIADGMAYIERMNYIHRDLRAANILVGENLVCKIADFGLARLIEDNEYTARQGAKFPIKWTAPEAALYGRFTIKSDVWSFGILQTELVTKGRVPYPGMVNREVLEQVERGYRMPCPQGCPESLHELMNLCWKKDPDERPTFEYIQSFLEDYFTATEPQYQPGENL

For the compound `FC(F)(F)c1nc(N2CCOCC2)c2cnn(Cc3ccccc3)c2n1` [Compound Z108567148], the “First screening IR (inhibition rate)” value is given as -2%.

On to `O=C(NCC1CCCCC1)c1cc(-c2ccccc2)nc2c1cnn2Cc1ccncc1` [Compound Z108748406], for which the “First screening IR (inhibition rate)” value amounted to 8%.

With `O=C(Nc1nc2c(s1)CN(Cc1ccccc1)CC2)c1csc(-c2ccsc2)n1` [Compound Z108907460], the “First screening IR (inhibition rate)” value was 8%.

Take `CON(C)C(=O)c1cc(-c2ccccc2)nc2c1cnn2Cc1ccncc1` [Compound Z109300154]: the “First screening IR (inhibition rate)” value was -8%.

Regarding `O=C(CN1CCN(C(=O)c2cc(-c3ccccc3)nc3c2cnn3Cc2ccncc2)CC1)NC1CC1` [Compound Z109522106], the “First screening IR (inhibition rate)” value stood at 12%.

For the compound `COc1ccc(Cl)cc1CN(C)C(=O)c1cc(C(C)C)nc2c1cnn2C(C)C` [Compound Z110143980], the “First screening IR (inhibition rate)” value was -14%.

Consider `COc1ccccc1C(=O)Nc1ccc(Nc2nc(-c3ccccc3)c3cc(C)ccc3n2)cc1` [Compound Z111781008], for which the “First screening IR (inhibition rate)” value worked out at 8%.

Take `Cc1cc(SC(C)C(=O)Nc2ccc3[nH]c(=O)[nH]c3c2)nc2ccccc12` (stereo not shown) [Compound Z112518822]: the “First screening IR (inhibition rate)” value was -20%.

For `Cc1sc2nc(CN3CCC(C)CC3)n(CC(=O)Nc3ccc(N4CCCC4)cc3)c(=O)c2c1C` [Compound Z112958446], the “First screening IR (inhibition rate)” value is listed as -4%.

Take `CC(Sc1ccc2c(c1)CCC2)C(=O)Nc1sc2c(c1C(N)=O)CCC2` (stereo not shown) [Compound Z113592752]: the “First screening IR (inhibition rate)” value worked out at 1%.

Turning to `Cc1cccc(-n2c(=O)c3ccccc3n3c(SCC(=O)NC(C)CCCC(C)C)nnc23)c1C` (stereo not shown) [Compound Z113967060], the “First screening IR (inhibition rate)” value was found to be 15%.

Consider `Cc1noc(C)c1COC(=O)CCc1nc(-c2cccs2)no1` [Compound Z114088706], for which the “First screening IR (inhibition rate)” value stood at 9%.

On to `Cc1cc(-c2ccccc2)nc(SC(C)C(=O)Nc2sc3c(c2C(N)=O)CCC3)n1` (stereo not shown) [Compound Z114120486], for which the “First screening IR (inhibition rate)” value was -3%.

`COc1cc(/C=C/C(=O)c2ccc3c(c2)NC(=O)CO3)ccc1O` [Compound Z114950222]: the “First screening IR (inhibition rate)” value is recorded as 1%.

With `CCCN(CCC)c1ccc(/C=C/C(=O)c2ccc3c(c2)NC(=O)CO3)cc1` [Compound Z114950486], the “First screening IR (inhibition rate)” value amounted to 26%.

Take `Cc1nc(-c2ccsc2)sc1C(=O)Nc1ccc(Cl)cc1F` [Compound Z115004236]: the “First screening IR (inhibition rate)” value stood at 6%.

For the compound `CN(Cc1cnn(-c2ccccc2)c1)C(=O)c1ccc(Cl)c(S(=O)(=O)N2CCCCCC2)c1` [Compound Z115152726], the “First screening IR (inhibition rate)” value amounted to 4%.

For the compound `Cc1noc(C)c1S(=O)(=O)N1CCN(C(=O)CCc2c(C)[nH]c(=O)c(C#N)c2C)CC1` [Compound Z115241120], the “First screening IR (inhibition rate)” value worked out at 12%.

Take `O=C(NCCCN1CCCC1=O)c1cc(-c2ccccc2)nc2c1cnn2Cc1cccc(F)c1` [Compound Z116386688]: the “First screening IR (inhibition rate)” value is recorded as 3%.

For `NC(=O)c1cc(-c2ccccc2)nc2c1cnn2Cc1ccc(Cl)cc1` [Compound Z116821638], the “First screening IR (inhibition rate)” value was 1%.

As for `CN(C)C(CNC(=O)c1cc(-c2ccccc2)nc2c1cnn2Cc1ccncc1)c1ccccc1` (stereo not shown) [Compound Z116834630], the “First screening IR (inhibition rate)” value is recorded as -16%.

As for `O=C(c1cc(-c2ccccc2)nc2c1cnn2Cc1cccc(F)c1)N1CCC1` [Compound Z117073454], the “First screening IR (inhibition rate)” value is recorded as 5%.

For the compound `Cc1cc(=O)c(C(=O)N2CCC(C(=O)N3CCCCCC3)CC2)nn1-c1ccccc1F` [Compound Z117548264], the “First screening IR (inhibition rate)” value stood at 2%.

Regarding `CCN(CC)Cc1ccccc1CNC(=O)c1c(C)nn(-c2ccc(F)cc2)c1C` [Compound Z117807680], the “First screening IR (inhibition rate)” value was 9%.

As for `Cc1ccc(Nc2ccnc(Nc3ccc(C)cc3)n2)cc1` [Compound Z118512882], the “First screening IR (inhibition rate)” value is listed as -5%.

With `O=C(NC1CCS(=O)(=O)C1)c1nc(Cl)c(Cl)c(Cl)c1Cl` (stereo not shown) [Compound Z118688092], the “First screening IR (inhibition rate)” value was -7%.

With `O=C(Nc1ccc2[nH]c(=O)[nH]c2c1)c1occc1-c1ccccc1` [Compound Z118811128], the “First screening IR (inhibition rate)” value is 19%.

For `O=C(Nc1n[nH]c(-c2ccc(F)cc2)n1)c1csc2c1CCCC2` [Compound Z119708890], the “First screening IR (inhibition rate)” value is on record as -5%.

`Cc1ccc(-c2nc(NC(=O)c3ccc(F)cc3F)n[nH]2)cc1` [Compound Z119762582]: the “First screening IR (inhibition rate)” value is on record as -5%.

In the case of `Cc1ccc2nc(-c3ccc(Nc4nnc(Cc5csc(C)n5)s4)cc3)sc2c1` [Compound Z119992430], the “First screening IR (inhibition rate)” value was determined as 40%.

With `CC(C(=O)N1CCN(S(=O)(=O)c2ccccc2)CC1)N1CCC(C(N)=O)CC1` (stereo not shown) [Compound Z123938232], the “First screening IR (inhibition rate)” value was 0%.

For `Cc1c(C#N)c(NC(=O)CN2CCN(Cc3nc4ccccc4s3)CC2)n(CC2CCCO2)c1C` (stereo not shown) [Compound Z125608446], the “First screening IR (inhibition rate)” value amounted to 12%.

As to `O=C(CN1CCN(Cc2nc3scc(-c4ccc(F)cc4)c3c(=O)[nH]2)CC1)N1CCCCCC1` [Compound Z126042696], the “First screening IR (inhibition rate)” value is 22%.

`Cc1ccc(-c2c(C)sc3nc(CN4CCN(CC(=O)N5CCCCCC5)CC4)[nH]c(=O)c23)cc1` [Compound Z126044810]: the “First screening IR (inhibition rate)” value was -3%.

As to `Cc1c(C#N)c(NC(=O)CN2CCC(n3c(=O)[nH]c4ccccc43)CC2)n(Cc2ccco2)c1C` [Compound Z126941634], the “First screening IR (inhibition rate)” value stood at 9%.

For the compound `COCCNC(=O)CN1CCN(c2nc(-c3cccnc3)nc3scc(-c4ccccc4)c23)CC1` [Compound Z128012326], the “First screening IR (inhibition rate)” value came out at 9%.

For `CC(Nc1ccc([N+](=O)[O-])cc1[N+](=O)[O-])c1nnc2ccccn12` (stereo not shown) [Compound Z128086498], the “First screening IR (inhibition rate)” value is listed as -9%.

In the case of `COc1ccc(-c2csc3nc(C)nc(N4CCCN(CC(=O)NC(C)(C)C)CC4)c23)cc1OC` [Compound Z128141646], the “First screening IR (inhibition rate)” value is listed as -7%.

`COc1ccc(OC)c2c1CN(c1nc(CN3CCOCC3)nc3sc(C)c(C)c13)CC2O` (stereo not shown) [Compound Z128154998]: the “First screening IR (inhibition rate)” value was 47%. For the same compound, for the setting “second screening, dissolved from fresh powder, n = 4”, the “Second screening IR (inhibition rate)” value is on record as -4%.

Regarding `Cc1c(C#N)c(NC(=O)CN2CCC(n3c(=O)[nH]c4ccccc43)CC2)n(Cc2cccs2)c1C` [Compound Z130194258], the “First screening IR (inhibition rate)” value is given as 22%.

On to `CN(C1(C)CCS(=O)(=O)C1)S(=O)(=O)c1ccc(Cl)c(Cl)c1` (stereo not shown) [Compound Z131022412], for which the “First screening IR (inhibition rate)” value came out at 2%.

With `Cc1ccc(S(=O)(=O)N(C)C2(C)CCS(=O)(=O)C2)cc1` (stereo not shown) [Compound Z131022526], the “First screening IR (inhibition rate)” value turned out to be 3%.

For `CC1(C(=O)N2CCCc3cc(S(=O)(=O)N4CCCC4)ccc32)Cc2ccccc2C(=O)O1` (stereo not shown) [Compound Z131206652], the “First screening IR (inhibition rate)” value is recorded as -1%.

Take `COc1ccc(Br)c(C(=O)NCc2ccc(-c3csc(C)n3)cc2)c1` [Compound Z131231284]: the “First screening IR (inhibition rate)” value was -17%.

As for `O=C(CCc1cnn(-c2ccccc2)c1)Nc1nc2c(s1)CCCC2` [Compound Z131246512], the “First screening IR (inhibition rate)” value is on record as -5%.

The values above are taken from publication PMC5607274, “An iterative compound screening contest method for identifying target protein inhibitors using the tyrosine-protein kinase Yes” (Scientific Reports, 2017).
